In US9695155B2, “Herbicidal substituted pyrimidinyloxy benzene compounds” (E. I. DU PONT DE NEMOURS AND COMPANY, priority 2013, dated 2017):

What was measured:
[1] = system: nightshade; assay: Test C preemergence; type: in vivo, Solanum ptycanthum; conditions: for Nightshade plant response rating: preemergence, scale 0 (no effect) to 100 (complete control)
Text: (§1) Seeds of plant species selected from blackgrass (Alopecurus myosuroides), Italian ryegrass (Lolium multiflorum), wheat, winter (winter wheat, Triticum aestivum), galium (catchweed bedstraw, Galium aparine), corn (Zea mays), large (Lg) crabgrass (Digitaria sanguinalis), giant foxtail (Setaria faberii), johnsongrass (Sorghum halepense), lambsquarters (Chenopodium album), morningglory (Ipomoea coccinea), yellow nutsedge (Cyperus esculentus), pigweed (Amaranthus retroflexus), ragweed (common ragweed, Ambrosia elatior), soybean (Glycine max), barnyardgrass (Echinochloa crus-galli), oilseed rape (Brassica napus), waterhemp (common waterhemp, Amaranthus rudis), kochia (Kochia scoparia), wild oat (Avena fatua), surinam grass (Brachiaria decumbens), foxtail, green (green foxtail, Setaria viridis), goosegrass (Eleusine indica), bromegrass, downy (downy bromegrass, Bromus tectorum), nightshade (eastern black nightshade, Solanum ptycanthum), cocklebur (common cocklebur, Xanthium strumarium), cupgrass, woolly (woolly cupgrass, Eriochloa villosa), bermudagrass (Cynodon dactylon), sunflower, (common oilseed sunflower, Helianthus annuus), Russian thistle (Salsola kali), and velvetleaf (Abutilon theophrasti) were planted into a blend of loam soil and sand and treated preemergence with test chemicals formulated in a non-phytotoxic solvent mixture which included a surfactant.
(§2) At the same time, plants selected from these crop and weed species and also barley, winter (winter barley, Hordeum vulgare), windgrass (Apera spica-venti), chickweed (common chickweed, Stellaria media), deadnettle (henbit deadnettle, Lamium amplexicaule), and canarygrass (littleseed canarygrass, Phalaris minor) were planted in pots containing Redi-Earth® planting medium (Scotts Company, 14111 Scottslawn Road, Marysville, Ohio 43041) comprising spaghnum peat moss, vermiculite, wetting agent and starter nutrients and treated with postemergence applications of test chemicals formulated in the same manner. Plants ranged in height from 2 to 18 cm (1- to 4-leaf stage) for postemergence treatments. Treated plants and controls were maintained in a greenhouse for 13 to 15 days, after which time all species were compared to controls and visually evaluated. Plant response ratings, summarized in Table C, are based on a scale of 0 to 100 where 0 is no effect and 100 is complete control. A dash (-) response means no test result.

[2] = system: goosegrass; assay: Test C postemergence; type: in vivo, Eleusine indica; conditions: for Plant response rating (0 to 100), Goosegrass: postemergence; for Plant response rating, Goosegrass: Postemergence, scale 0 to 100 (0 no effect, 100 complete control)
Text: as §1, §2

[3] = system: sunflower; assay: Test C preemergence; type: in vivo, Helianthus annuus; conditions: for Sunflower plant response rating: preemergence, scale 0 (no effect) to 100 (complete control)
Text: as §1, §2

[4] = system: goosegrass; assay: Test C preemergence; type: in vivo, Eleusine indica; conditions: for Goosegrass plant response rating: preemergence, scale 0 (no effect) to 100 (complete control)
Text: as §1, §2

[5] = system: surinam grass; assay: Test C postemergence; type: in vivo, Brachiaria decumbens; conditions: for Plant response rating (0 to 100), Surinam Grass: postemergence; for Plant response rating, Surinam Grass: Postemergence, scale 0 to 100 (0 no effect, 100 complete control)
Procedure, shortened: (§3)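 Visual ratings on a 0–100 scale (100 = complete control) were made versus untreated controls after 13–15 greenhouse days. Chemicals in a surfactant-containing non-phytotoxic solvent were applied either preemergence to seeds in loam–sand soil or postemergence to 1- to 4-leaf plants 2–18 cm tall.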

[6] = system: barley, winter; assay: Test C postemergence; type: in vivo, Hordeum vulgare; conditions: for Plant response rating (0 to 100), Barley: postemergence; for Plant response rating, Barley: Postemergence, scale 0 to 100 (0 no effect, 100 complete control)
Procedure, shortened: as §3

[7] = system: surinam grass; assay: Test C preemergence; type: in vivo, Brachiaria decumbens; conditions: for Surinam Grass plant response rating: preemergence, scale 0 (no effect) to 100 (complete control)
Text: as §1, §2

[8] = system: cocklebur; assay: Test C preemergence; type: in vivo, Xanthium strumarium; conditions: for Cocklebur plant response rating: preemergence, scale 0 (no effect) to 100 (complete control)
Text: as §1, §2

[9] = system: canarygrass; assay: Test C postemergence; type: in vivo, Phalaris minor; conditions: for Plant response rating (0 to 100), Canarygrass: postemergence; for Plant response rating, Canarygrass: Postemergence, scale 0 to 100 (0 no effect, 100 complete control)
Procedure, shortened: as §3

[10] = system: cupgrass, woolly; assay: Test C postemergence; type: in vivo, Eriochloa villosa; conditions: for Plant response rating (0 to 100), Cupgrass, Woolly: postemergence; for Plant response rating, Cupgrass, Woolly: Postemergence, scale 0 to 100 (0 no effect, 100 complete control)
Procedure, shortened: as §3

[11] = system: bromegrass, downy; assay: Test C preemergence; type: in vivo, Bromus tectorum; conditions: for Bromegrass, Downy plant response rating: preemergence, scale 0 (no effect) to 100 (complete control)
Text: as §1, §2

[12] = system: cupgrass, woolly; assay: Test C preemergence; type: in vivo, Eriochloa villosa; conditions: for Cupgrass, Woolly plant response rating: preemergence, scale 0 (no effect) to 100 (complete control)
Text: as §1, §2

[13] = Preemergence, 31 g ai/ha, scale 0 to 100, 0 no effect, 100 complete control

## FC(F)(F)c1cnn(-c2ccccc2Oc2ncc(Cl)cn2)c1 [Compound 16]
[1]; 62 g ai/ha
  Nightshade plant response rating: 65
[1]; 125 g ai/ha
  Nightshade plant response rating: 80
[1]; 250 g ai/ha
  Nightshade plant response rating: 98
[1]; [13]
  Plant response rating, Nightshade: 20
[2]; 125 g ai/ha
  Plant response rating (0 to 100), Goosegrass: 15
[2]; 250 g ai/ha
  Plant response rating (0 to 100), Goosegrass: 30
[2]; 31 g ai/ha, 13 to 15 days
  Plant response rating, Goosegrass: 0
[2]; 62 g ai/ha
  Plant response rating, Goosegrass: 10
[3]; 62 g ai/ha
  Sunflower plant response rating: 0
[3]; 125 g ai/ha
  Sunflower plant response rating: 0
[3]; 250 g ai/ha
  Sunflower plant response rating: 0
[3]; [13]
  Plant response rating, Sunflower: 0
[4]; 62 g ai/ha
  Goosegrass plant response rating: 98
[4]; 125 g ai/ha
  Goosegrass plant response rating: 100
[4]; 250 g ai/ha
  Goosegrass plant response rating: 100
[4]; [13]
  Plant response rating, Goosegrass: 75
[5]; 125 g ai/ha
  Plant response rating (0 to 100), Surinam Grass: 40
[5]; 250 g ai/ha
  Plant response rating (0 to 100), Surinam Grass: 40
[5]; 31 g ai/ha, 13 to 15 days
  Plant response rating, Surinam Grass: 10
[5]; 62 g ai/ha
  Plant response rating, Surinam Grass: 15
[6]; 125 g ai/ha
  Plant response rating (0 to 100), Barley: 10
[6]; 250 g ai/ha
  Plant response rating (0 to 100), Barley: 35
[6]; 31 g ai/ha, 13 to 15 days
  Plant response rating, Barley: 0
[6]; 62 g ai/ha
  Plant response rating, Barley: 5
[7]; 62 g ai/ha
  Surinam Grass plant response rating: 100
[7]; 125 g ai/ha
  Surinam Grass plant response rating: 100
[7]; 250 g ai/ha
  Surinam Grass plant response rating: 100
[7]; [13]
  Plant response rating, Surinam Grass: 25
[8]; 62 g ai/ha
  Cocklebur plant response rating: 5
[8]; 125 g ai/ha
  Cocklebur plant response rating: 5
[8]; 250 g ai/ha
  Cocklebur plant response rating: 20
[8]; [13]
  Plant response rating, Cocklebur: 0
[9]; 125 g ai/ha
  Plant response rating (0 to 100), Canarygrass: 60
[9]; 250 g ai/ha
  Plant response rating (0 to 100), Canarygrass: 80
[9]; 31 g ai/ha, 13 to 15 days
  Plant response rating, Canarygrass: 10
[9]; 62 g ai/ha
  Plant response rating, Canarygrass: 30
[10]; 125 g ai/ha
  Plant response rating (0 to 100), Cupgrass, Woolly: 20
[10]; 250 g ai/ha
  Plant response rating (0 to 100), Cupgrass, Woolly: 30
[10]; 31 g ai/ha, 13 to 15 days
  Plant response rating, Cupgrass, Woolly: 5
[10]; 62 g ai/ha
  Plant response rating, Cupgrass, Woolly: 15
[11]; 62 g ai/ha
  Bromegrass, Downy plant response rating: 60
[11]; 125 g ai/ha
  Bromegrass, Downy plant response rating: 90
[11]; 250 g ai/ha
  Bromegrass, Downy plant response rating: 95
[11]; [13]
  Plant response rating, Bromegrass, Downy: 30
[12]; 62 g ai/ha
  Cupgrass, Woolly plant response rating: 90
[12]; 125 g ai/ha
  Cupgrass, Woolly plant response rating: 98
[12]; 250 g ai/ha
  Cupgrass, Woolly plant response rating: 98
[12]; [13]
  Plant response rating, Cupgrass, Woolly: 75
